Article PMC2704987 (Pharmacotherapy, 2009)
Where two headings read alike, the source gives them in different places.

Legend:
[1] = format: in vivo, human; settings: for AUC / Cmax: human, plasma, po, 120 mg/m^2/day, oral erlotinib 120 mg/m^2/day (150 mg)
[2] = children, 120 mg/m^2/day, range in parentheses; cited from earlier work
[3] = child with glioblastoma, cited from earlier work
[4] = adults, 150 mg/day; cited from earlier work
[5] = adults, 150 mg/day; cited from earlier work; remark: listed apart in the source
[6] = cited from earlier work
[7] = cited from earlier work; remark: listed apart in the source
[8] = cited from earlier work; remark: listed apart in the source
[9] = oral azithromycin, 12 CF patients; cited from earlier work
[10] = orally administered ganciclovir; cited from earlier work
[11] = cystic fibrosis patient, oral erlotinib 150 mg daily
[12] = adult patients with advanced malignant disease

In the case of C#Cc1cccc(Nc2ncnc3cc(OCCOC)c(OCCOC)cc23)c1 [erlotinib], the “ka (absorption rate constant)” value ([1]; cystic fibrosis patient, oral erlotinib 120 mg/m^2/day) is reported as 1.51 h^−, the “VdERL (apparent volume of distribution of erlotinib)” value ([1]; cystic fibrosis patient, oral erlotinib 120 mg/m^2/day, with pancrelipase) is reported as 60.4 L/m^2 and the “Apparent clearance of erlotinib” value [1, 11] is reported as 4.9 L/h/m^2. For the same molecule, the “Apparent volume of distribution of erlotinib” value [1, 11] was 60.4 L, the “rate of erlotinib absorption (ka)” value [1, 11] was 1.51 h⁻¹ and the “absorption of orally administered erlotinib in a cystic fibrosis patient” value ([1]; given concomitantly with pancreatic enzymes replacement therapy) was “not affected”. For the same molecule, the AUC ([1]; Day 1 AUCERL, cystic fibrosis patient, day 1, plasma) was 18800 ng·h/mL, the Cmax ([1]; Day 1 Cmax, cystic fibrosis patient, day 1, plasma) was 1440 ng/mL and the AUC ([1]; Day 8 AUCERL, cystic fibrosis patient, day 8 (steady state)) was 25700 ng·h/mL. The Cmax ([1]; Day 8 Cmax, cystic fibrosis patient, day 8, plasma) was 1460 ng/mL, the “Day 1 AUCERL” value [2] was 22.6 (18.2–27) mcg*h/mL and the “Day 1 Cmax” value [2] was 1260 (490–2020) ng/mL. The “Day 8 AUCERL” value [2] was 29.5 (12–47) mcg*h/mL, the “Day 1 AUCERL” value ([3]; 70 mg/m^2/day) was 19400 ng·h/mL and the “Day 8 AUCERL” value ([3]; 70 mg/m^2/day) was 32600 ng·h/mL. The ka ([3]; 70 mg/m^2/day) was 0.59 h^−, the “penetration of erlotinib into the CSF” value ([3]; oral erlotinib) was “modest” and the “Day 1 AUCERL” value [4] was 16540 ± 11020 ng·h/mL. The “Day 1 AUCERL” value [5] was 19400 ± 10000 ng·h/mL, the half-life [6, 12] was 10 to 36 h and the “time to maximum concentration (Cmax) after dose administration” value [6, 12] was 2 to 4 h. The “bioavailability after oral administration with food” value ([6]; adults, administration with food) was no less than 100%, the elimination in feces ([6]; adults, biliary excretion) was 63% and the “bioavailability after oral administration” value ([6]; adults, without food) was “approximately 60%”. For the same molecule, the elimination in urine ([6]; adults) was 13%, the “bound to plasma proteins” value [7] was 95% and the “solubility in water and methanol” value [8] was “poor”.

In the case of CC[C@H]1OC(=O)[C@H](C)[C@@H](O[C@H]2C[C@@](C)(OC)[C@@H](O)[C@H](C)O2)[C@H](C)[C@@H](O[C@@H]2O[C@H](C)C[C@H](N(C)C)[C@H]2O)[C@](C)(O)C[C@@H](C)CN(C)[C@H](C)[C@@H](O)[C@]1(C)O [azithromycin], the “Cmax, Tmax, and AUC values, CF patients versus healthy volunteers” value [9] is given as “similar” and the “absorption rate constant (ka) and absolute bioavailability (F), CF patients versus healthy volunteers” value [9] is given as “no statistically significant difference”.

In the case of Nc1nc(O)c2ncn(COC(CO)CO)c2n1 [ganciclovir], the “pharmacokinetic parameters in post-lung transplant patients with CF” value [10] is given as “predictable”.
